In patent US11407729B2, “Quinoline and quinazoline compounds and methods of use thereof” (Stingray Therapeutics, Inc., priority 2019, dated 2022):
Structures can show the parent of a compound that is named as a salt.

target: T1, ENPP1 protein (Homo sapiens, UniProt P22413); experiment: Thermal Shift Binding Assay; settings: 1 μg of ENPP1 protein incubated with 100 μM of drug for 5 minutes; read-out: Thermal Shift (Δ TmD)
T1 sequence (P22413 1-925): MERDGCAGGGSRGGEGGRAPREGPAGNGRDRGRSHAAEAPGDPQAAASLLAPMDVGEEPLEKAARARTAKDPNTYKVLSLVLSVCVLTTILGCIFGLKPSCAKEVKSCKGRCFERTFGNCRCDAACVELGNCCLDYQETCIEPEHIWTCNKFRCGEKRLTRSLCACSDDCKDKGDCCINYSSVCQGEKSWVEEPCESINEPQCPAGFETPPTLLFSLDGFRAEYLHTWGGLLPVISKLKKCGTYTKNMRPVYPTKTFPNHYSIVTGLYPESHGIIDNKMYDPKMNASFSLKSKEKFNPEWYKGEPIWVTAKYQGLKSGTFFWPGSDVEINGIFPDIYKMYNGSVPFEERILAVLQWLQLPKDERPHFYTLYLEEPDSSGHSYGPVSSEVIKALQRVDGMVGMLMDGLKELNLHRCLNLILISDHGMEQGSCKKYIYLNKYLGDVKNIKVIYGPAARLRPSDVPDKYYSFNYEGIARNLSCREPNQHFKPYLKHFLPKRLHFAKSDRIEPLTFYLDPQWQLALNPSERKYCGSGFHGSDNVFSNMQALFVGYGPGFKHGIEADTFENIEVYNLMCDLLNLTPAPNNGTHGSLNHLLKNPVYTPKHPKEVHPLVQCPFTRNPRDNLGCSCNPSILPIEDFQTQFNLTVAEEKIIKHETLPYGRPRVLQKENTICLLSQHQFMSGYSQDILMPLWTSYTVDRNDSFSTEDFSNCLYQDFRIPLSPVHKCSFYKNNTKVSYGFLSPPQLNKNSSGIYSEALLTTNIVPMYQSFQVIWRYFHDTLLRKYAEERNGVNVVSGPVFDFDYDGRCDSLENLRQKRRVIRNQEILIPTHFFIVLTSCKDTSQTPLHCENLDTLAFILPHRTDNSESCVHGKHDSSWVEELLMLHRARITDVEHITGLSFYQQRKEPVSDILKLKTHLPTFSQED
Procedure: Thermal Shift Binding Assay.
The Thermal Shift Assays were implemented to study thermal stabilization of ENPP1 proteins upon ENPP1 inhibitor or ligand binding. These assays were used extensively on purified ENPP1 protein. In a 384-well plate, 1 μg of ENPP1 protein was incubated with 100 μM of the corresponding drug for 5 minutes. Each well was exposed to increasing temperatures to determine an unfolding temperature of the protein. […] 2′3′ cGAMP was used as a positive control, as it is a substrate of ENPP1.

| ΔTm at 100 µM [°C] | Compound |
| --- | --- |
| 3.6 | COc1cc2nccc(N3CCC(C(C)CNS(N)(=O)=O)CC3)c2cc1N1CCOCC1 (centres unmarked) [Compound I-12] |

target: T1, ENPP1 protein; experiment: ENPP1 Inhibition Assay; type: biochemical; set-up: purchased R&D 6136-EN-010; settings: substrate Thymidine 5′-monophosphate p-nitrophenol ester; 37° C. for 45 minutes; absorbance at 405 nm
Procedure: 1. ENPP1 Inhibition Assay
An eight point serial dilution of drugs was prepared in 10× in assay buffer with the final assay concentrations starting at 10 μM, 3 μM, 1 μM, 0.3 μM . . . 0 μM. A dilution of DMSO was included as a control. The assay plate was set up as follows with each well in duplicate: 81 μL assay buffer+10 μL ENPP1 inhibitor or DMSO+5 μL Substrate+4 μL Enzyme. Both the enzyme and substrate were added to opposite sides of the well to ensure that there was no interaction until all wells had both components. The plate was then centrifuged gently for 10 seconds, followed by an incubation at 37° C. for 45 minutes.
IC50 values are determined using GraphPad Prism 5 software. The data were entered as an X-Y plot into the software as percent inhibition for each concentration of the drug. The concentration values of the drug were log transformed and the nonlinear regression was carried out using the “sigmoidal dose-response (variable slope)” option within the GraphPad software to model the data and calculate IC50 values.

| Compound | IC50 [nM] |
| --- | --- |
| COc1cc2nccc(N3CCN(C4(CNS(N)(=O)=O)CC4)CC3)c2cc1OC [Compound I-31, N-((1-(4-(6,7-dimethoxyquinolin-4-yl)piperazin-1-yl)cyclopropyl)methyl)sulfuricdiamide] | 23.7 |
| COc1cc2nccc(N3CCC(C(C)CNS(N)(=O)=O)CC3)c2cc1OCCO (centres unmarked) [Compound I-11, N-(2-(1-(6-(2-hydroxyethoxy)-7-methoxyquinolin-4-yl)piperidin-4-yl)propyl)aminosulfonamide formate salt] | 4490 |
| COc1ccc2c(N3CCC(C(C)CNS(N)(=O)=O)CC3)ccnc2c1 (centres unmarked) [Compound I-07, N-(2-(1-(7-methoxyquinolin-4-yl)piperidin-4-yl)propyl)aminosulfonamide] | 250 |
| COc1cc2nccc(N3CCN(CCNS(N)(=O)=O)[C@H](C)C3)c2cc1OC [Compound I-21, (R)—N-(2-(4-(6,7-dimethoxyquinolin-4-yl)-2-methylpiperazin-1-yl)ethyl)aminosulfonamide formate salt] | 344 |
| COc1cc2nccc(N3CCC(C(C)CN(C4CC4)S(N)(=O)=O)CC3)c2cc1OC (centres unmarked) [Compound I-16, N-cyclopropyl-N-(2-(1-(6,7-dimethoxyquinolin-4-yl)piperidin-4-yl)propyl)aminosulfonamide formate salt] | 409 |
| COCOc1cc2c(N3CCN(C4(CNS(N)(=O)=O)CC4)CC3)ncnc2cc1OC [Compound I-33, N-((1-(4-(7-methoxy-6-(methoxymethoxy)quinazolin-4-yl)piperazin-1-yl)cyclopropyl)methyl)sulfuricdiamide] | 158 |
| COc1cc2nccc(N3CCC(N(C4CC4)S(N)(=O)=O)CC3)c2cc1OC [Compound I-24, N—(N-cyclopropyl-N-(1-(6,7-dimethoxyquinolin-4-yl)piperidin-4-yl)sulfuricdiamide formate salt] | 953 |
| COc1cc2ncnc(N3CCC(CCNS(N)(=O)=O)CC3)c2cc1OP(=O)(O)O [Compound I-03, sodium 7-methoxy-4-(4-(2-(sulfamoylamino)ethyl)piperidin-1-yl)quinazolin-6-yl phosphate] | 2870 |
| COCOc1cc2c(N3CCC(C4(CNS(N)(=O)=O)CC4)CC3)ncnc2cc1OC [Compound I-35, N-((1-(1-(7-methoxy-6-(methoxymethoxy)quinazolin-4-yl)piperidin-4-yl)cyclopropyl)methyl)sulfuricdiamide] | 49.2 |
| CNS(=O)(=O)NCC(C)C1CCN(c2ccnc3cc(OC)c(OC)cc23)CC1 (centres unmarked) [Compound I-15, N-(2-(1-(6,7-dimethoxyquinolin-4-yl)piperidin-4-yl)propyl)Methyaminosulfonamide] | 3480 |
| COc1cc2nccc(N3CCC(C4CCCN(S(N)(=O)=O)C4)CC3)c2cc1OC (centres unmarked) [Compound I-17, 6,7-dimethoxy-4-(1-(aminosulfonyl)-[3,4′-bipiperidin]-1′-yl)quinoline formate salt] | 75.8 |
| COc1cc2nccc(N3CCC(C(=O)NC4(C#N)CC4)CC3)c2cc1OC [Compound I-18, N-(1-cyanocyclopropyl)-1-(6,7-dimethoxyquinolin-4-yl)piperidine-4-carboxamide] | > 10000 |
| COc1cc2nccc(N3CCC(C4(CNS(N)(=O)=O)CC4)CC3)c2cc1OCF [Compound I-37, N-((1-(1-(6-(fluoromethoxy)-7-methoxyquinolin-4-yl)piperidin-4-yl)cyclopropyl)methyl)sulfuricdiamide] | 1.09 |
| COc1cc2nccc(N3CCC(C(C)CNS(N)(=O)=O)CC3)c2cc1O (centres unmarked) [Compound I-09, N—(N-(2-(1-(6-hydroxy-7-methoxyquinolin-4-yl)piperidin-4-yl)propyl)sulfuricdiamide formate salt] | 1880 |

Further compounds by falling IC50, results first:

| IC50 [nM] | Compound |
| --- | --- |
| 5610 | COc1cc2ncnc(N3CCC(N(C4CC4)S(N)(=O)=O)CC3)c2cc1OC [Compound I-30] |
| 3810 | COc1cc2nccc(N3CCC(C(C)CNS(C)(=O)=O)CC3)c2cc1OC (centres unmarked) [Compound I-19, N-(2-(1-(6,7-dimethoxyquinolin-4-yl)piperidin-4-yl)propyl)methanesulfonamide] |
| 897 | COc1cc2nccc(N3CCC(NS(N)(=O)=O)CC3)c2cc1OC [Compound I-23, N—(N-(1-(6,7-dimethoxyquinolin-4-yl)piperidin-4-yl)sulfuricdiamide formate salt] |
| 835 | COc1cc2nccc(N3CCC(C(C)CNS(N)(=O)=O)CC3)c2cc1N1CCOCC1 (centres unmarked) [Compound I-12] |
| 420 | COc1cc2ncnc(N3CCC(NS(N)(=O)=O)CC3)c2cc1OC [Compound I-29, N—(N-(1-(6,7-dimethoxyquinazolin-4-yl)piperidin-4-yl)sulfuricdiamide formate salt] |
| 224 | COc1ccc2nccc(N3CCC(C(C)CNS(N)(=O)=O)CC3)c2c1 (centres unmarked) [Compound I-08, N-(2-(1-(6-methoxyquinolin-4-yl)piperidin-4-yl)propyl)aminosulfonamide] |
| 156 | COCCOc1cc2c(N3CCC(C(C)CNS(N)(=O)=O)CC3)ccnc2cc1OC (centres unmarked) [Compound I-10, N-(2-(1-(7-methoxy-6-(2-methoxyethoxy)quinolin-4-yl)piperidin-4-yl)propyl)aninosulfonamide formate salt] |
| 133 | COc1cc2ncnc(N3CCN(C4(CNS(N)(=O)=O)CC4)CC3)c2cc1OCF [Compound I-34, N-((1-(4-(6-(fluoromethoxy)-7-methoxyquinazolin-4-yl)piperazin-1-yl)cyclopropyl)methyl)sulfuricdiamide] |
| 55.6 | COc1cc2ncnc(N3CCN(C4(CNS(N)(=O)=O)CC4)CC3)c2cc1OC [Compound I-32, N-((1-(4-(6,7-dimethoxyquinazolin-4-yl)piperazin-1-yl)cyclopropyl)methyl)sulfuricdiamide] |
| 52.6 | COCOc1cc2c(N3CCC(C(C)(C)CNS(N)(=O)=O)CC3)ncnc2cc1OC [Compound I-36, N-(2-(1-(7-methoxy-6-(methoxymethoxy)quinazolin-4-yl)piperidin-4-yl)-2-methylpropyl)sulfuricdiamide] |
| 35.2 | COc1cc2nccc(N3CCC(C(C)(C)CNS(N)(=O)=O)CC3)c2cc1OC [Compound I-14, N-(2-(1-(6,7-dimethoxyquinolin-4-yl)piperidin-4-yl)-2-methylpropyl)sulfuricdiamide hydro chloride salt] |
| 26.2 | COCOc1cc2c(N3CCC(C(C)CNS(N)(=O)=O)CC3)ncnc2cc1OC (centres unmarked) [Compound I-28] |
| 14 | COc1cc2nccc(N3CCN(C(C)CNS(N)(=O)=O)CC3)c2cc1OC (centres unmarked) [Compound I-20, N-(2-(4-(6,7-dimethoxyquinolin-4-yl)piperazin-1-yl)propyl)aminosulfonamide formate salt] |
| 11.5 | COc1cc2ncnc(N3CCC(C4(CNS(N)(=O)=O)CC4)CC3)c2cc1OC [Compound I-27, N—(N-((1-(1-(6,7-dimethoxyquinazolin-4-yl)piperidin-4-yl)cyclopropyl)methyl)sulfuricdiamide formate salt] |
| 9.09 | COc1cc2nccc(N3CCC(C4(CNS(N)(=O)=O)CC4)CC3)c2cc1OC [Compound I-22] |
| 5.05 | CCC(CNS(N)(=O)=O)C1CCN(c2ncnc3cc(OC)c(OC)cc23)CC1 (centres unmarked) [Compound I-25, N—(N-(2-(1-(6,7-dimethoxyquinazolin-4-yl)piperidin-4-yl)butyl)sulfuricdiamide formate salt] |
| 2.39 | COc1cc2ncnc(N3CCC(C(C)(C)CNS(N)(=O)=O)CC3)c2cc1OC [Compound I-26, N-(2-(1-(6,7-dimethoxyquinazolin-4-yl)piperidin-4-yl)-2-methylpropyl)sulfuricdiamide formate salt] |
